This is an account of results in patent US10611778B2, “Fused bicyclic inhibitors of menin-MLL interaction” (Janssen Pharmaceutica NV, priority 2016, dated 2020).

What is called IC50 is the point on the concentration scale where inhibition reaches its midpoint.

Several values for one entry are separate records, joined by “and”; a condition that tells them apart may be missing. Equal values may be shown once. Read-outs that look alike come from different tables or passages of the source. A value given as a limit tells only on which side of the number the result lay.

One assay relates to K562. Kind of assay: Proliferation assay (spheroid assay) K562 control cell line. Type of assay: cell-based. The settings on record: Homo sapiens. As to the method:
The anti-proliferative effect of menin/MLL protein/protein interaction inhibitor test compounds was assessed in human leukemia cell lines. The cell lines MV-4-11 and MOLM14 harbor MLL translocations and express the MLL fusion proteins MLL-AF4 and MLL-AF9, respectively, as well as the wildtype protein from the second allele. […] K562 and KG1 were used as a control cell lines containing two MLL wildtype alleles in order to exclude compounds that display general cytotoxic effects.
MV-4-11 and MOLM14 were cultured in RPMI-1640 (Sigma Aldrich) supplemented with 10% fetal bovine serum (HyClone), 2 mM L-glutamine (Sigma Aldrich) and 50 μg/ml gentamycin (Gibco). K562 were propagated in RPMI-1640 (Sigma Aldrich) supplemented with 20% fetal bovine serum (HyClone), 2 mM L-glutamine (Sigma Aldrich) and 50 μg/ml gentamycin (Gibco). KG1 were cultured in Iscove's MDM (Gibco) supplemented with 20% fetal bovine serum (HyClone), 2 mM L-glutamine (Sigma Aldrich) and 50 μg/ml gentamycin (Gibco).
In order to assess the anti-proliferative effects, 1,500 MV-4-11, 300 MOLM14, 750 K562 or 1,300 KG1 cells were seeded in 200 μl media per well in 96-well round bottom, ultra-low attachment plates (Costar, catalogue number 7007). Cell seeding numbers were chosen based on growth curves to ensure linear growth throughout the experiment. Test compounds were added at different concentrations and the DMSO content was normalized to 0.3%. Cells were incubated for 8 d at 37° C. and 5% CO2. Spheroid like growth was monitored in real-time by live-cell imaging (IncuCyteZOOM, Essenbio, 4× objective) acquiring one image every four hours for 8 d. Confluence (%) as a measure of spheroid size was determined using an integrated analysis tool.
In order to determine the cumulative effect of the test compounds over time, the area under the curve (AUC) in a plot of confluence against time was calculated. Confluence at the beginning of the experiment (t=0) was used as baseline for the AUC calculation.
Absolute IC50 values were calculated according to the following procedure: % Control=(AUC sample/AUC control)*100
AUC control=mean AUC of control values (cells without compound/DMSO as vehicle control)
A non-linear curve fit was applied using the least squares (ordinary) fit method to the plot of % control versus compound concentration. Based on this, the absolute IC50 value (half maximal inhibitory concentration of the test compound causing an anti-proliferative effect of 50% relative to the vehicle control) was calculated.

In another assay the test system is MOLM14. Kind of assay: Proliferation assay (spheroid assay) MOLM14. Type of assay: cell-based, human. The gist of the method: (§1)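 Cells were grown as spheroids in ultra-low attachment round-bottom wells with compound (0.3% DMSO) for 8 d at 37 °C, imaged every 4 h, with confluence as spheroid size. AUC of confluence versus time (t=0 baseline) was expressed as % of DMSO control, and absolute IC50 came from a least-squares nonlinear fit.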

A further assay concerns MV-4-11. Kind of assay: Proliferation assay (spheroid assay) MV-4-11. It counts as cell-based, human. The gist of the method:
as §1

[1] abbreviates: K562 control cell line, averaged values over all measurements, read-out: Spheroid assay K562 (IC50).
Where [2] appears, read: Homo sapiens, MOLM-14, MOLM14, averaged values over all measurements, read-out: Spheroid assay MOLM14 (IC50).
Where [3] appears, read: Homo sapiens, MV4-11, MV-4-11, averaged values over all measurements, read-out: Spheroid assay MV-4-11 (IC50).

As to `Fc1ccccc1CN1CC[C@H]2CN(c3ncnc4sc(CC(F)(F)F)cc34)CC[C@H]21` (single isomer, unassigned) [Compound 6], the results for the IC50 with K562 (setting [1]), in the assay with MOLM14 (setting [2]) and with MV-4-11 (setting [3]) were 9 µM, 3.3 µM and 1.4 µM, respectively.

As to `FC(F)(F)Cc1cc2c(N3CC[C@H]4[C@H](CCN4Cc4ccc[nH]4)C3)ncnc2s1` (single isomer, unassigned) [Compound 8], the IC50 with K562 (192 h, K562, 8 d, individual measurements (not averaged), read-out: (2) Spheroid assay K562 (IC50 (μM))) was > 15 µM; with MOLM14 (MOLM14, 8 d, individual measurements (not averaged), read-out: (2) Spheroid assay MOLM14 (IC50 (μM))), 5.7 µM and > 15 µM; in the assay with MV-4-11 (Homo sapiens, MV4-11, 192 h, MV-4-11, 8 d, individual measurements (not averaged), read-out: (2) Spheroid assay MV-4-11 (IC50 (μM))) it was 2.1 µM; with MV-4-11 (MV-4-11, 8 d, individual measurements (not averaged), read-out: (2) Spheroid assay MV-4-11 (IC50 (μM))), 2.3 µM.

Consider `FC(F)(F)Cc1cc2c(N3CCC4C(CCN4Cc4ccccc4)C3)ncnc2s1` (stereo not shown) [Compound 1], for which the IC50 in the assay on K562 (setting [1]) stood at 13.1 µM; with MOLM14 (setting [2]) it was 4.4 µM; with MV-4-11 (setting [3]), 1.5 µM.

As for `FC(F)(F)Cc1cc2c(N3CCC4C3CCN4Cc3ccccc3)ncnc2s1` (stereo not shown) [Compound 2], the figures for the IC50 in the assay with K562 (setting [1]), in the assay with MOLM14 (setting [2]) and in the assay on MV-4-11 (setting [3]) were > 15 µM, 9.8 µM and 7.3 µM, respectively.
